Experimental findings from patent US12324802B2, “Modulators of cystic fibrosis transmembrane conductance regulator” (Vertex Pharmaceuticals Incorporated, priority 2020, dated 2025) are described below.

This assay has as its target T1, CFTR (F508del/MF-HBE cells) (Homo sapiens, UniProt P13569, DEL508-508).
T1 construct: human bronchial epithelial (HBE) cells derived from CF subjects heterozygous for F508del and a minimal function CFTR mutation; endogenous in cells; host or cells: primary human bronchial epithelial cells from CF subjects (F508del/MF genotype)
The experiment in a line: Ussing chamber assay of CFTR-mediated short-circuit currents (identification of potentiator compounds). It counts as cell-based. The note with it: CFTR-mediated ISC in F508del/MF-HBE cells; incubated 18-24 hours at 37° C. with 10 μM (14S)-8-[3-(2-{dispiro[2.0.2.1]heptan-7-yl}ethoxy)-1H-pyrazol-1-yl]-...-2,2,4-trione, 20% human serum. The method in brief:
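F508del/minimal-function HBE cultures grown at air-liquid interface were incubated for 18–24 h at 37 °C with potentiator plus 10 μM corrector, in 20% human serum, and compounds stayed present during recording. Transepithelial ISC was recorded at 0 mV and 37 °C with 30 μM apical amiloride. CFTR current was taken as the peak response to 20 μM forskolin minus the steady state after a 20 μM inhibitor cocktail.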

T1 sequence (P13569 with tags, fused parts or gaps DEL508-508): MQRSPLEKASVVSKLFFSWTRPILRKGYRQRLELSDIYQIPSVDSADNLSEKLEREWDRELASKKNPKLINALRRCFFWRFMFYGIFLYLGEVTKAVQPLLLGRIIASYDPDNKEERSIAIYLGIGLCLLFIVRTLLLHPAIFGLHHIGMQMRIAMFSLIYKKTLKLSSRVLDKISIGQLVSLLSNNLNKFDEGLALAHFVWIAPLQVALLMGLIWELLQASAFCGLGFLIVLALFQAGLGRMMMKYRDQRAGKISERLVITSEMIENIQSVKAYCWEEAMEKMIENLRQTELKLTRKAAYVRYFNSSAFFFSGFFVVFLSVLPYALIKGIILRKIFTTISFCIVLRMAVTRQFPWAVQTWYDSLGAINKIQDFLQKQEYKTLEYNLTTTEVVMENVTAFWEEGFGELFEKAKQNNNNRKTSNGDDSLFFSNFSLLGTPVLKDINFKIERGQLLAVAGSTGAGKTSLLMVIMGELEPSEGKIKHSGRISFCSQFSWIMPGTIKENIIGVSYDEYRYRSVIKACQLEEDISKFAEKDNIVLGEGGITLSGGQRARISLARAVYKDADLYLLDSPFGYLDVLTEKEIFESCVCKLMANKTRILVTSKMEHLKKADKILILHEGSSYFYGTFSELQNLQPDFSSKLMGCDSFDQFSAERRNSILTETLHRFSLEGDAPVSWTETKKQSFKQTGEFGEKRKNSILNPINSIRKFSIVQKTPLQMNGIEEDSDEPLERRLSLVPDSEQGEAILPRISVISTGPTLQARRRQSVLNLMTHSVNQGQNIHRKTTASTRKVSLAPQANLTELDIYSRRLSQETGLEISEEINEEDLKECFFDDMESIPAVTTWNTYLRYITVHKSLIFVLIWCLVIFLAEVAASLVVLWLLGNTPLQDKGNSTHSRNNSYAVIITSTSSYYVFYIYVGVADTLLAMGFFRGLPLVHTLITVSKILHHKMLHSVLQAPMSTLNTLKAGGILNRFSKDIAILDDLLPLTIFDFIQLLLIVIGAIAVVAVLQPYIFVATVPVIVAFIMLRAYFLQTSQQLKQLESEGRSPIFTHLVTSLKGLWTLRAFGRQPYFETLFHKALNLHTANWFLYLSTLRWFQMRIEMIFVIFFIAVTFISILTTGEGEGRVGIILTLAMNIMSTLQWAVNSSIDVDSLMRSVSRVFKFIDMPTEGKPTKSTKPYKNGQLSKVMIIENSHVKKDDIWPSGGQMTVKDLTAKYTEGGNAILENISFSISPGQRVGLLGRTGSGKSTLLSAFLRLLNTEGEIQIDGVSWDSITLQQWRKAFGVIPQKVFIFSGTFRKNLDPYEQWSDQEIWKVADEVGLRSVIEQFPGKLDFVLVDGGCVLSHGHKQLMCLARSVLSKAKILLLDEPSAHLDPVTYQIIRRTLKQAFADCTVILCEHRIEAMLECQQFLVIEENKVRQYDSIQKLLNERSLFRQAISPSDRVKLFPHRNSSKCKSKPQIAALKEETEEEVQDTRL

Turning to `CN1CCCCCCC(O)(c2ccccc2)C2=NN=C(O2)c2nc1c(C(F)(F)F)cc2N` (single isomer, unassigned) [Compound 77, 17-amino-13-methyl-6-phenyl-15-(trifluoromethyl)-19-oxa-3,4,13,18-tetrazatricyclo[12.3.1.12,5]nonadeca-1(18),2,4,14,16-pentaen-6-ol], the EC50 was greater than 1000 nM.
Next, `CN1CCCCCCC(O)(C2CC2)C2=NN=C(O2)c2nc1c(C(F)(F)F)cc2N` (single isomer, unassigned) [Compound 78, 17-amino-6-cyclopropyl-13-methyl-15-(trifluoromethyl)-19-oxa-3,4,13,18-tetrazatricyclo[12.3.1.12,5]nonadeca-1(18),2,4,14,16-pentaen-6-ol]: less than 500 nM.
To `CN1CCCCCCC(O)(C2CC2)C2=NN=C(O2)c2nc1c(C(F)(F)F)cc2N` (single isomer, unassigned) [Compound 79, 17-amino-6-cyclopropyl-13-methyl-15-(trifluoromethyl)-19-oxa-3,4,13,18-tetrazatricyclo[12.3.1.12,5]nonadeca-1(18),2,4,14,16-pentaen-6-ol] belongs greater than 1000 nM; to `N#Cc1cc(N)c2nc1N1CCC[C@H]1CCCCCC(O)(C(F)(F)F)C1=NN=C2O1` (single isomer, unassigned) [Compound 80], less than 500 nM.
Next, `N#Cc1cc(N)c2nc1N1CCC[C@H]1CCCCCC(O)(C(F)(F)F)C1=NN=C2O1` (single isomer, unassigned) [Compound 81]: greater than 1000 nM; `Nc1cc(C(F)(F)F)c2nc1-c1nnc(o1)C(O)(C(F)(F)F)c1cccc(n1)CCC[C@@H]1CCCN21` (single isomer, unassigned) [Compound 82]: less than 500 nM; `Nc1cc(C(F)(F)F)c2nc1-c1nnc(o1)C(O)(C(F)(F)F)c1cccc(n1)CCC[C@@H]1CCCN21` (single isomer, unassigned) [Compound 83]: 500 to 1000 nM.
As to `Nc1cc(C(F)(F)F)c2nc1-c1nnc(o1)C(O)(C(F)(F)F)c1cc(ccn1)CCC[C@@H]1CCCN21` (single isomer, unassigned) [Compound 84], the EC50 was less than 500 nM.
To `Nc1cc(C(F)(F)F)c2nc1-c1nnc(o1)C(O)(C(F)(F)F)c1cc(ccn1)CCC[C@@H]1CCCN21` (single isomer, unassigned) [Compound 85] belongs greater than 1000 nM; to `Nc1cc(C(F)(F)F)c2nc1-c1nnc(o1)C(O)(C(F)(F)F)c1cc(ccn1)CCC[C@@H]1CCCN21` (single isomer, unassigned) [Compound 86], greater than 1000 nM; to `Nc1cc(C(F)(F)F)c2nc1-c1nnc(o1)C(O)(C(F)(F)F)c1cc(ccn1)CCC[C@@H]1CCCN21` (single isomer, unassigned) [Compound 87], less than 500 nM.
Next, `Nc1cc(C(F)(F)F)c2nc1-c1nnc(o1)C(O)(C1CCOCC1)CCCCC[C@@H]1CCCN21` (single isomer, unassigned) [Compound 88]: less than 500 nM; `Nc1cc(C(F)(F)F)c2nc1-c1nnc(o1)C(O)(C1CCOCC1)CCCCC[C@@H]1CCCN21` (single isomer, unassigned) [Compound 89]: greater than 1000 nM.
Next, `Nc1cc(C2CC2)c2nc1-c1nnc(o1)C(O)(C(F)(F)F)CCCCC[C@@H]1CCCN21` (single isomer, unassigned) [Compound 90]: less than 500 nM; `Nc1cc(C2CC2)c2nc1-c1nnc(o1)C(O)(C(F)(F)F)CCCCC[C@@H]1CCCN21` (single isomer, unassigned) [Compound 91]: greater than 1000 nM; `COc1ccc2cc1C(O)(C(F)(F)F)C1=NN=C(O1)c1nc(c(C(F)(F)F)cc1N)N1CCC[C@H]1CCC2` (single isomer, unassigned) [Compound 92]: greater than 1000 nM.
`COc1ccc2cc1C(O)(C(F)(F)F)C1=NN=C(O1)c1nc(c(C(F)(F)F)cc1N)N1CCC[C@H]1CCC2` (single isomer, unassigned) [Compound 93]: the EC50 was less than 500 nM.
